Assay results: patent US12037333B2, “Pyridopyrazine and pyridotriazine inhibitors of influenza virus replication” (priority 2018, dated 2024)

What follows are compounds tested on Influenza type A (strain A/PR/8/34, ATCC VR-95) (assay: Influenza antiviral assay: inhibition of virus-induced cytopathic effects (CPE) in MDCK cells, XTT dye reduction). Settings: Influenza A (H1N1), strain A/PR/8/34, MDCK cells, CPE inhibition at 4 days.
Type: cell-based
With `CC(CCN1CN(C23c4ccccc4CC2Cc2ccccc23)n2ccc(=O)c(O)c2C1=O)c1ccccc1` (stereo not drawn) [Compound A33] the EC50 was 375 to 500 nM. With `CC1N(CC(F)F)C(=O)c2c(O)c(=O)ccn2N1C12c3ccccc3CC1Cc1c2ccc(F)c1F` (stereo not drawn) [Compound A137] the EC50 was 125 to 250 nM.

Same assay, conditions: Influenza A virus, H1N1 / PR/8, MDCK, 96 h, strain A/PR/8/34, MDCK cells, CPE inhibition at 4 days
For `O=C1c2c(O)c(=O)ccn2N(C23c4ccccc4CC2Cc2c(Cl)cccc23)CN1CC1CCC1` (stereo not drawn) [Compound A112], the EC50 was 375 to 500 nM. Compound `CCN1CN(C23c4cccc(F)c4CC2Cc2c(F)cccc23)n2ccc(=O)c(O)c2C1=O` (stereo not drawn) [Compound A34] has an EC50 of under 125 nM. For `CN1C(=O)c2c(O)c(=O)ccn2N(C23c4cccc(F)c4CC2Cc2c(F)cccc23)C1CO` (stereo not drawn) [Compound A59], the EC50 was under 125 nM. `O=C1c2c(O)c(=O)ccn2N(C23c4ccccc4CC2Cc2c(F)cccc23)CN1CC1CCCCO1` (stereo not drawn) [Compound A133] gave an EC50 of 125 to 250 nM. With `CN1CN(C23c4ccccc4CC2Cc2cc(F)c(F)cc23)n2ccc(=O)c(O)c2C1=O` (stereo not drawn) [Compound A19, 1-(2,3-difluoro-9a,10-dihydroindeno[1,2-a]inden-4b(9H)-yl)-5-hydroxy-3-methyl-2,3-dihydro-1H-pyrido[2,1-f][1,2,4]triazine-4,6-dione] the EC50 was under 125 nM. `O=C1c2c(O)c(=O)ccn2N(C23c4ccccc4CC2Cc2c(F)cccc23)CN1CC1CCOCC1` (stereo not drawn) [Compound A75] gave an EC50 of under 125 nM. `Cc1cc(CN2CN(C34c5ccccc5CC3Cc3ccccc34)n3ccc(=O)c(O)c3C2=O)no1` (stereo not drawn) [Compound A144] showed an EC50 of under 125 nM. With `CCN1C(=O)c2c(O)c(=O)ccn2N(C23c4ccccc4CC2Cc2c(Cl)cccc23)C1C` (stereo not drawn) [Compound A95] the EC50 was 125 to 250 nM. For `O=C1c2c(O)c(=O)ccn2N(C23c4ccccc4CC2Cc2c(Cl)cccc23)CN1CC(F)F` (stereo not drawn) [Compound A105], the EC50 was under 125 nM. `CC1N(CC2CC2)C(=O)c2c(O)c(=O)ccn2N1C12c3ccccc3CC1Cc1c(Cl)cccc12` (stereo not drawn) [Compound A140] gave an EC50 of 250 to 375 nM. `O=C1c2c(O)c(=O)ccn2N(C23c4ccccc4CC2Cc2c(Cl)cccc23)CN1C1CC1` (stereo not drawn) [Compound A93] was tested, and the EC50 was 125 to 250 nM. For `CCN1CN(C23c4ccccc4CC2(CC)Cc2c3ccc(F)c2F)n2ccc(=O)c(O)c2C1=O` (stereo not drawn) [Compound A56], the EC50 was under 125 nM. `O=C1c2c(O)c(=O)ccn2N(C23c4cccc(F)c4CC2Cc2c(F)cccc23)CN1CC1CCOCC1` (stereo not drawn) [Compound A81] gave an EC50 of 125 to 250 nM. In the case of `CN1C(=O)c2c(O)c(=O)ccn2N(C23c4cccc(F)c4CC2Cc2c(F)cccc23)C1CN` (stereo not drawn) [Compound A107, 2-(aminomethyl)-1-(1,8-difluoro-9a,10-dihydroindeno[1,2-a]inden-4b(9H)-yl)-5-hydroxy-3-methyl-2,3-dihydro-1H-pyrido[2,1-f][1,2,4]triazine-4,6-dione], the EC50 is reported as 125 to 250 nM. `O=C1c2c(O)c(=O)ccn2N(C23c4cccc(F)c4CC2Cc2c(F)cccc23)CN1CC1CC1` (stereo not drawn) [Compound A76] gave an EC50 of under 125 nM. `CCOC12Cc3ccccc3C1(N1CN(C)C(=O)c3c(O)c(=O)ccn31)c1ccccc1C2` (stereo not drawn) [Compound A57] gave an EC50 of under 125 nM. In the case of `COCCN1CN(C23c4ccccc4CC2Cc2c(F)cccc23)n2ccc(=O)c(O)c2C1=O` (stereo not drawn) [Compound A69], the EC50 is reported as under 125 nM. In the case of `CCN1CN(C23c4ccccc4CC2(C)Cc2ccccc23)n2ccc(=O)c(O)c2C1=O` (stereo not drawn) [Compound A147], the EC50 is reported as under 125 nM. `CCN1CN(C23c4ccccc4CC2Cc2c3ccc(C)c2F)n2ccc(=O)c(O)c2C1=O` (stereo not drawn) [Compound A98] gave an EC50 of 250 to 375 nM. `O=C1c2c(O)c(=O)ccn2N(C23c4ccccc4CC2Cc2c(F)cccc23)CN1CCF` (stereo not drawn) [Compound A68] showed an EC50 of under 125 nM. `CN1CN(C23C(=Cc4ccccc42)Cc2ccccc23)n2ccc(=O)c(O)c2C1=O` (stereo not drawn) [Compound A30, 5-hydroxy-1-(indeno[1,2-a]inden-4b(9H)-yl)-3-methyl-2,3-dihydro-1H-pyrido[2,1-f][1,2,4]triazine-4,6-dione] gave an EC50 of under 125 nM. For `O=C1c2c(O)c(=O)ccn2N(C23c4ccccc4CC2Cc2c3ccc(F)c2F)CN1CC1CCOCC1` (stereo not drawn) [Compound A15, 1-(1,2-Difluoro-9a,10-dihydro-9H-indeno[1,2-a]inden-4b-yl)-5-hydroxy-3-(tetrahydro-pyran-4-ylmethyl)-2,3-dihydro-1H-pyrido[2,1-f][1,2,4]triazine-4,6-dione], the EC50 was under 125 nM. `O=C1c2c(O)c(=O)ccn2N(C23c4cccc(F)c4CC2Cc2c(F)cccc23)CN1CCc1ccccc1` (stereo not drawn) [Compound A86] gave an EC50 of 125 to 250 nM. With `CC1N(C)C(=O)c2c(O)c(=O)ccn2N1C12c3ccccc3CC1Cc1c(F)cccc12` (stereo not drawn) [Compound A60] the EC50 was under 125 nM. Compound `O=C1c2c(O)c(=O)ccn2N(C23c4ccccc4CC2Cc2ccccc23)CN1Cc1ccccc1` (stereo not drawn) [Compound A4, 3-Benzyl-1-(9a,10-dihydro-9H-indeno[1,2-a]inden-4b-yl)-5-hydroxy-2,3-dihydro-1H-pyrido[2,1-f][1,2,4]triazine-4,6-dione] has an EC50 of over 500 nM. `CN1CN(C23c4ccccc4CC2(C)Cc2ccccc23)n2ccc(=O)c(O)c2C1=O` (stereo not drawn) [Compound A150] was tested, and the EC50 was under 125 nM. In the case of `COCCN1C(=O)c2c(O)c(=O)ccn2N(C23c4ccccc4CC2Cc2c(Cl)cccc23)C1C` (stereo not drawn) [Compound A125], the EC50 is reported as 250 to 375 nM. For `CC(CCN1CN(C23c4ccccc4CC2Cc2ccccc23)n2ccc(=O)c(O)c2C1=O)c1ccccc1` (stereo not drawn) [Compound A32, 1-(9a,10-dihydroindeno[1,2-a]inden-4b(9H)-yl)-5-hydroxy-3-(3-phenylbutyl)-2,3-dihydro-1H-pyrido[2,1-f][1,2,4]triazine-4,6-dione], the EC50 was over 500 nM. With `CC(C)CN1CN(C23c4ccccc4CC2Cc2c3ccc(F)c2F)n2ccc(=O)c(O)c2C1=O` (stereo not drawn) [Compound A149] the EC50 was under 125 nM. `CCCN1CN(C23c4cccc(F)c4CC2Cc2c(F)cccc23)n2ccc(=O)c(O)c2C1=O` (stereo not drawn) [Compound A153] was tested, and the EC50 was under 125 nM. With `CC1N(CC2CC2)C(=O)c2c(O)c(=O)ccn2N1C12c3ccccc3CC1Cc1c(F)cccc12` (stereo not drawn) [Compound A129] the EC50 was 250 to 375 nM. Compound `O=C1c2c(O)c(=O)ccn2N(C23c4ccccc4CC2Cc2c(F)cccc23)CN1CCc1ccccc1` (stereo not drawn) [Compound A87] has an EC50 of 125 to 250 nM. `O=C1c2c(O)c(=O)ccn2N(C23c4ccccc4CC2Cc2c3ccc(F)c2F)CN1Cc1cccc(F)c1` (stereo not drawn) [Compound A26, 1-(1,2-difluoro-9a,10-dihydroindeno[1,2-a]inden-4b(9H)-yl)-3-(3-fluorobenzyl)-5-hydroxy-2,3-dihydro-1H-pyrido[2,1-f][1,2,4]triazine-4,6-dione] gave an EC50 of 375 to 500 nM. `CCN1CN(C23c4cccc(F)c4CC2(C)Cc2c(F)cccc23)n2ccc(=O)c(O)c2C1=O` (stereo not drawn) [Compound A51] showed an EC50 of under 125 nM. For `COCCN1CN(C23c4ccccc4CC2Cc2ccccc23)n2ccc(=O)c(O)c2C1=O` (stereo not drawn) [Compound A110], the EC50 was 125 to 250 nM. Compound `CC1N(C)C(=O)c2c(O)c(=O)ccn2N1C12c3ccccc3CC1Cc1c(Cl)cccc12` (stereo not drawn) [Compound A94] has an EC50 of 250 to 375 nM. `CC(C)CN1C(=O)c2c(O)c(=O)ccn2N(C23c4ccccc4CC2Cc2c(F)cccc23)C1C` (stereo not drawn) [Compound A117] showed an EC50 of over 500 nM. Compound `CC1N(CC2CC2)C(=O)c2c(O)c(=O)ccn2N1C12c3ccccc3CC1Cc1c2ccc(F)c1F` (stereo not drawn) [Compound A128] has an EC50 of 250 to 375 nM. Work on `CC1N(CCF)C(=O)c2c(O)c(=O)ccn2N1C12c3ccccc3CC1Cc1c(F)cccc12` (stereo not drawn) [Compound A121] yielded an EC50 of 125 to 250 nM. Compound `CN1CN(C23c4cccc(F)c4CC2Cc2c(F)cccc23)n2ccc(=O)c(O)c2C1=O` (stereo not drawn) [Compound A12, 1-(1,8-Difluoro-9a,10-dihydro-9H-indeno[1,2-a]inden-4b-yl)-5-hydroxy-3-methyl-2,3-dihydro-1H-pyrido[2,1-f][1,2,4]triazine-4,6-dione] has an EC50 of under 125 nM.
